Source: patent EP1022029A1, “NOOTROPIC AGENT” (priority 1997, dated 1999)
Where two headings read alike, the source gives them in different places.

Experiments:
Format in all cases: cell-based
normal ACh receptors = target: T1, normal ACh receptors (Tetronarce californica, UniProt P02710+P02712+P02714+P02718); assay: Calcium permeability of normal ACh receptors in oocytes loaded with Calcium Green; conditions: normal solution + nefiracetam (1μM); ACh 100 µM; mean ± SD, n=7
T1 construct: expressed in transfected cells; host or cells: Xenopus oocytes
Protocol: An oocyte expressing normal ACh receptors was loaded with Calcium Green. Intracellular calcium ([Ca^2+]i) and evoked currents (IA) were recorded for each of the cases in which administration of ACh (100 µM) was carried out in a Ca^2+-free (extCa^2+(-)) extracellular solution or in an ordinary extracellular solution (Calcium Green TM-1 (Molecular Probes, Inc. USA) was injected to the oocytes). The Ca^2+ rise was normalized by Δ increase (δI) of intensity/base intensity/current amplitude (µA) obtained with calcium-free media.
In Table 15, each value represents the average from seven oocytes (SD; standard deviation). ACh-evoked currents in the Xenopus oocytes expression system are composed of acetylcholine-gated channel currents and calcium-dependent chloride currents. Nefiracetam had no effect on calcium permeability through the nACh receptor channel. (Table 15). The results from Examples 6a and 6b indicate that nefiracetam modulated acetylcholine-gated channel currents but not calcium-sensitive chloride (Cl^-) currents.

α7 receptor = target: T2, α7 receptor (Rattus norvegicus, UniProt Q05941); assay: ACh-evoked currents in α7 receptors expressed in Xenopus oocytes (two-electrode voltage clamp); conditions: for normalized response (%): nef(+), n=5
T2 construct: expressed in transfected cells; host or cells: Xenopus oocytes injected with in vitro transcribed mRNA
Protocol: Two-electrode voltage-clamp technique was used to record expression α4β2 or α7 receptors in oocytes. […] The holding voltage was -30 or -60 mV for α4β2-nAChR or α7-nAChR, respectively. Downward directions correspond to inward currents.
(§1) mRNAs for the rat α4β2 receptor and α7 receptor, GLUR1, 2, 3 receptors, and NP152 and NP153 were constructed as described previously. Xenopus oocytes were manually separated from the ovary, and subjected to treatment with collagenase (0.5 mg/ml). Thereafter, the treated oocytes were incubated overnight in Barth's solution (in mM, 88 NaCl, 1 KCl, 2.4 NaHCO3, 0.82 MgSO4, 0.33 […], 0.41 CaCl2, and 7.5 Tris; pH 7.6). The oocytes were injected with the α4β2 or α7 receptor mRNA and incubated at 18°C. In some cases, NP152 and NP153 were co-expressed with the α4β2 and α7 receptors. The injected oocytes were incubated and transferred to a recording chamber 2-7 days after incubation and continuously superfused at room temperature (20-22°C) with a standard frog Ringer's solution [in mM: 115 NaCl, 2 KCl, 1.8 CaCl2, 5 HEPES; pH 7.0]. To remove the effect of endogenous muscarinic ACh receptor, 1 µM atropine was added to the extracellular solution. ACh-evoked currents were recorded by use of two-electrode voltage clamp techniques and an amplifier (GeneClamp-500, Axon Instrument, Inc. USA). The currents were analyzed on a microcomputer by pClamp software (Axon Instrument, Inc.; Version 6). From the results, an assessment was made as to whether nefiracetam actually acts on the nACh receptors.

α4β2 receptor = target: T3, α4β2 receptor (Rattus norvegicus, UniProt P09483+P12390); assay: ACh-evoked currents in α4β2 receptors expressed in Xenopus oocytes (two-electrode voltage clamp); conditions: for normalized response (%): nef(+), n=5
T3 construct: expressed in transfected cells; host or cells: Xenopus oocytes injected with in vitro transcribed mRNA
Protocol: Two-electrode voltage-clamp technique was used to record expression α4β2 or α7 receptors in oocytes. ACh (100 µM) was applied to a single oocyte in the presence or absence of α-BuTX (50 nM) or MCA (3 µM). The holding voltage was -30 or -60 mV for α4β2-nAChR or α7-nAChR, respectively. Downward directions correspond to inward currents.
as §1

[1] = tested on: mutant ACh receptors (mγΔPKA/Ser353,354m δΔPKA/Ser361,362) lacking PKA phosphorylation sites; assay: ACh-evoked currents in mutant ACh receptors lacking PKA phosphorylation sites expressed in Xenopus oocytes; conditions: nefiracetam 0.01 µM; 30 min after treatment; n=7
Protocol: ACh (100 µM) was applied to each of an oocyte expressing normal ACh receptors and an oocyte expressing mutant ACh receptors (mγΔPKA/Ser353, 354m δΔPKA/Ser361,362) lacking PKA phosphorylation sites, before and after treatment with nefiracetam (0.01 µM). The oocytes expressing normal ACh receptors were treated with H-89 (1 µM) from 15 min before recording, or with pertussis toxin (0.1 µg/ml) for 24h prior to experiments. The currents illustrated in Table 16 were recorded before and 30 min after treatment with nefiracetam. The holding voltage was - 30 mV. In Table 16, each point represents the average obtained from seven oocytes.
To further examine whether the current depression by nefiracetam is due to PKA phosphorylation of the receptors or not, mutant ACh receptors lacking potent PKA phosphorylation sites on the γ and δ subunits (mγΔ PKA/Ser353,354m δΔPKA/Ser361,362) were expressed in Xenopus oocytes.

[2] = tested on: postsynaptic potentials evoked from the hippocampal CA1 region; assay: Postsynaptic potentials recorded in the CA1 pyramidal cell layer of rat hippocampal slices
[3] = tested on: mutant ACh receptors lacking potent PKC phosphorylation sites on the α and δ subunits (mαΔPKC/Ser333m δΔPKC/Ser377); assay: ACh-evoked currents in mutant ACh receptors lacking PKC phosphorylation sites expressed in Xenopus oocytes; conditions: nefiracetam 1 µM
[4] = 1 h, nefiracetam 1 µM, 60 minutes after treatment, read-out: ACh-evoked currents potentiated, reaching
[5] = Nefiracetam 0.01 µM, n = 5 to 8, read-out: % of the original amplitude
[6] = Nefiracetam 0.1 µM, n = 5 to 8, read-out: % of the original amplitude
[7] = Nefiracetam 1 µM, n = 5 to 8, read-out: % of the original amplitude
[8] = Nefiracetam 10 µM, n = 5 to 8, read-out: % of the original amplitude
[9] = in the presence of the inactive PKC inhibitory peptide (NP153; iPKCI)

T3 sequence (P09483 31-630): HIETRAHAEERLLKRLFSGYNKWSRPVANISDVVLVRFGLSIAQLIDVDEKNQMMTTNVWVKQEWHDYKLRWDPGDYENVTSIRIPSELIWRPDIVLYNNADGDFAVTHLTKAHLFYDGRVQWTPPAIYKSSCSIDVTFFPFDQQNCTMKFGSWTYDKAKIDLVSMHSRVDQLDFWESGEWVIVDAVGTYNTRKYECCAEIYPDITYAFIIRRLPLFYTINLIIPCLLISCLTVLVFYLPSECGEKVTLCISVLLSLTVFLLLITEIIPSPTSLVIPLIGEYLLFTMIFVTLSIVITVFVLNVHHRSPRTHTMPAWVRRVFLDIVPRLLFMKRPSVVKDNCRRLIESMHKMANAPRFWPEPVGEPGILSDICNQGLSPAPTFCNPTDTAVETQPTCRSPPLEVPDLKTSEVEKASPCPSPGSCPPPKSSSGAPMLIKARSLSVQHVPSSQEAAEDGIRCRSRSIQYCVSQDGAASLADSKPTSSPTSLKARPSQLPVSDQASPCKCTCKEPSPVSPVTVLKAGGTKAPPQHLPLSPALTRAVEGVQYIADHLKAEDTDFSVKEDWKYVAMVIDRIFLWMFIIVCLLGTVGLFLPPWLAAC
T3 sequence (P12390 25-500): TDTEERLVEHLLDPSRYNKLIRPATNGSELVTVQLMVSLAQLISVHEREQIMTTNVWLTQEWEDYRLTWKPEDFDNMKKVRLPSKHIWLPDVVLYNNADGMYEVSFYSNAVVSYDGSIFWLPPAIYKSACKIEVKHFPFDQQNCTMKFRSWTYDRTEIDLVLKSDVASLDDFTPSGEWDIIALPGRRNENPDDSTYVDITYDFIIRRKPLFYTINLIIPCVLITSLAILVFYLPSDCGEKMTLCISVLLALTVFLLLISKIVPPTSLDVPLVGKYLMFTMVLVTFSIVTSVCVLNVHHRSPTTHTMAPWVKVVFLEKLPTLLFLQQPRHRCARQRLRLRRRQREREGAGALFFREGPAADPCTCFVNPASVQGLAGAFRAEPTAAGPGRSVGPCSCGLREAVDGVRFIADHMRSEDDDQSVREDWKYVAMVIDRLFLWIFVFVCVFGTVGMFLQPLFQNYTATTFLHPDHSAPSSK
T2 sequence (Q05941 23-502): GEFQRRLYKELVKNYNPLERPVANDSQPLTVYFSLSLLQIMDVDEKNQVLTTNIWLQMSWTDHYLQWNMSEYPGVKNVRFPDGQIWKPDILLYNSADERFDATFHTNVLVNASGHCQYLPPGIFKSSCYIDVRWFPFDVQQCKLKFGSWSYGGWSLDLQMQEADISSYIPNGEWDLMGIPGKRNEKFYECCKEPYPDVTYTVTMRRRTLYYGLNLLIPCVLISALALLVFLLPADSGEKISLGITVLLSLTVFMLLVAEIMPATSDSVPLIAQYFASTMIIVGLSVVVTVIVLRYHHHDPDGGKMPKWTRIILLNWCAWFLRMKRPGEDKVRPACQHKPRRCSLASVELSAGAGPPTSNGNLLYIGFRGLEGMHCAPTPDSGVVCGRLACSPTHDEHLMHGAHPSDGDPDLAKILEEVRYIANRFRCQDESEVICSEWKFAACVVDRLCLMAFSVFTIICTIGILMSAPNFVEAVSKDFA
T1 sequence (P02710 25-461): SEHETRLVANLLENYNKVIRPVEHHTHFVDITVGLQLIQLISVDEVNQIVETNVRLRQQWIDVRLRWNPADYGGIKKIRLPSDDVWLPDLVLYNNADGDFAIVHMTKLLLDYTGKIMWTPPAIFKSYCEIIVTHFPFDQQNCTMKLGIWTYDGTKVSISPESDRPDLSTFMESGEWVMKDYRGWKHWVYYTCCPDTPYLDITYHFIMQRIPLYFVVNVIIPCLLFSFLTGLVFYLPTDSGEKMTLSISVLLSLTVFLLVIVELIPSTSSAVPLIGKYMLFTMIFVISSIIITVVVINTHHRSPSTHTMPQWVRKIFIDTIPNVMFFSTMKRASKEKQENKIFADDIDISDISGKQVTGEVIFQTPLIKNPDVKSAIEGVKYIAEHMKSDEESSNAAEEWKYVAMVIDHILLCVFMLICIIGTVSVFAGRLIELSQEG
T1 sequence (P02712 25-493): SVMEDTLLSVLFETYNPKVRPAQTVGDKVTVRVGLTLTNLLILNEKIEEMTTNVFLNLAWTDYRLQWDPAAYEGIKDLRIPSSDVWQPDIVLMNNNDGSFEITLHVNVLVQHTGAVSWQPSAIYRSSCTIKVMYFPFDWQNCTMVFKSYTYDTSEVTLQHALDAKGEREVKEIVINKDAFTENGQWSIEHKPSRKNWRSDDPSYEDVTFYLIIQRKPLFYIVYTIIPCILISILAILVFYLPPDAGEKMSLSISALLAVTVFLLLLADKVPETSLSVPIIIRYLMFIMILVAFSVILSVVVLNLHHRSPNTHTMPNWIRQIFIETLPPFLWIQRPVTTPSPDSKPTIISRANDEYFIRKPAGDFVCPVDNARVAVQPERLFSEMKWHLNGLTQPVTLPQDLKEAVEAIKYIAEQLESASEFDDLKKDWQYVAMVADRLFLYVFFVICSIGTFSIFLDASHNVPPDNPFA
T1 sequence (P02714 18-506): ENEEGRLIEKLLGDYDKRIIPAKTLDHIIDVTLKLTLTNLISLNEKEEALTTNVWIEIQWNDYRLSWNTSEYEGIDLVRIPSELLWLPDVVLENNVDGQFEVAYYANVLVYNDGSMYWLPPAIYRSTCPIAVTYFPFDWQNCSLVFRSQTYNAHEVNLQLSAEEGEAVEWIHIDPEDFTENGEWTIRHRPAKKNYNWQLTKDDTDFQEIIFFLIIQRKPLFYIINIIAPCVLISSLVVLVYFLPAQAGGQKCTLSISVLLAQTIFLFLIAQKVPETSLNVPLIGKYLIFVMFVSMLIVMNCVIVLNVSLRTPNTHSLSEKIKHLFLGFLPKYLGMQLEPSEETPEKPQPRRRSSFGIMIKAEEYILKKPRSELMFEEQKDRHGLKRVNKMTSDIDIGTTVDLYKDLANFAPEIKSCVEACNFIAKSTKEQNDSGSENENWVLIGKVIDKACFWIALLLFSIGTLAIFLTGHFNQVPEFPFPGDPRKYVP
T1 sequence (P02718 22-522): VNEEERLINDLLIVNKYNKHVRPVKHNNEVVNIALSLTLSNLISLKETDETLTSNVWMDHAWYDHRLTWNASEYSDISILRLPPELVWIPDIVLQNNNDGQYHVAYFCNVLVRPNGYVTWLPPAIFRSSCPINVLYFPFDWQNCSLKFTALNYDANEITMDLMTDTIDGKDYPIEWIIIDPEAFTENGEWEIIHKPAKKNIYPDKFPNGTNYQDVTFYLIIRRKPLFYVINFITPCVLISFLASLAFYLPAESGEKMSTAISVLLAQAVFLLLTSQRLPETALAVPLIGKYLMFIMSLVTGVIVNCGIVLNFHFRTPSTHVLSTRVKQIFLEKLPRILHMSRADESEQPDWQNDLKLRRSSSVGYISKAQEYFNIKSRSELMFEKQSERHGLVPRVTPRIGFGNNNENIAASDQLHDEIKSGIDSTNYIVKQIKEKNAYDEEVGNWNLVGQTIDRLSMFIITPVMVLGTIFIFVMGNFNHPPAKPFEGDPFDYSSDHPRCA

Cc1cccc(C)c1NC(=O)CN1CCCC1=O [nefiracetam, 2-oxo-1-pyrrolidinylacetic acid 2,6-dimethylanilide]
normalized Ca^2+ rise (Δ increase of intensity / base intensity / current amplitude) (normal ACh receptors): 6.6 ± 1.4
concentration of maximum potentiation of ACh-evoked currents (α7 receptor): 1 µM
activity at 1 µM (α7 receptor; [4]): 195%
normalized response (%) (α7 receptor; ACh 0.1 µM, nefiracetam 1 µM): 0%
normalized response (%) (α7 receptor; ACh 1 µM, nefiracetam 1 µM): 1.5%
normalized response (%) (α7 receptor; ACh 10 µM, nefiracetam 1 µM): 3%
normalized response (%) (α7 receptor; ACh 100 µM, nefiracetam 1 µM): 35%
normalized response (%) (α7 receptor; ACh 1000 µM, nefiracetam 1 µM): 100%
activity at 0.01 µM (α7 receptor; [5]): 97.4 ± 5.5%
activity at 0.1 µM (α7 receptor; [6]): 181 ± 10.8%
activity at 1 µM (α7 receptor; [7]): 195 ± 8.8%
activity at 10 µM (α7 receptor; [8]): 116 ± 7.2%
currents potentiated to (α7 receptor; [9]): 193.6%
concentration at which potentiation of ACh-evoked currents was observed (α7 receptor; lowest effective concentration): ≥ 0.01 µM
concentration of maximum potentiation of ACh-evoked currents (α4β2 receptor): 0.1 µM
activity at 1 µM (α4β2 receptor; [4]): 180%
normalized response (%) (α4β2 receptor; ACh 0.1 µM, nefiracetam 1 µM): 0%
normalized response (%) (α4β2 receptor; ACh 1 µM, nefiracetam 1 µM): 2%
normalized response (%) (α4β2 receptor; ACh 10 µM, nefiracetam 1 µM): 36%
normalized response (%) (α4β2 receptor; ACh 100 µM, nefiracetam 1 µM): 66%
normalized response (%) (α4β2 receptor; ACh 1000 µM, nefiracetam 1 µM): 100%
activity at 0.0001 µM (α4β2 receptor; Nefiracetam 0.0001 µM, n = 5 to 8, read-out: % of the original amplitude): 100 ± 15.5%
activity at 0.001 µM (α4β2 receptor; Nefiracetam 0.001 µM, n = 5 to 8, read-out: % of the original amplitude): 150 ± 13.6%
activity at 0.01 µM (α4β2 receptor; [5]): 212 ± 20.5%
activity at 0.1 µM (α4β2 receptor; [6]): 225 ± 18.9%
activity at 1 µM (α4β2 receptor; [7]): 161 ± 12.6%
activity at 10 µM (α4β2 receptor; [8]): 156 ± 17.6%
currents potentiated to (α4β2 receptor; [9]): 169.3%
concentration at which potentiation of ACh-evoked currents was observed (α4β2 receptor; lowest effective concentration): ≥ 0.0001 µM
% of the original amplitude (Ach-evoked current) (α4β2 receptor; treatment as labelled, nefiracetam 1 µM, GF109203X 100 nM, peptides co-expressed, Mean ± SD, n = 6 to 8): 160 ± 5.6%
ACh-evoked currents increased to [1]: 159%
Postsynaptic potential (% of original amplitude) ([2]; Nefiracetam 0.01 µM, GF109203X(100nM), 10 min after treatment, n=5): 50 ± 5%
Postsynaptic potential (% of original amplitude) ([2]; Nefiracetam 0.01 µM, H-89(1µM), 10 min after treatment, n=5): 103 ± 8%
Postsynaptic potential (% of original amplitude) ([2]; Nefiracetam 1 µM, GF109203X(100nM), 10 min after treatment, n=5): 108.8 ± 11.6%
Postsynaptic potential (% of original amplitude) ([2]; Nefiracetam 1 µM, H-89(1µM), 10 min after treatment, n=5): 155 ± 8%
activity at 0.01 µM ([2]; Rattus norvegicus, 10 min, Nefiracetam 0.01 µM, Control (no inhibitor), 10 min after treatment, n=5, read-out: Postsynaptic potential (% of original amplitude)): 85 ± 5%
activity at 1 µM ([2]; Rattus norvegicus, 10 min, Nefiracetam 1 µM, Control (no inhibitor), 10 min after treatment, n=5, read-out: Postsynaptic potential (% of original amplitude)): 143 ± 2%
activity at 1 µM ([2]; Rattus norvegicus, 1 h, 60 minutes after the 1 µM treatment, read-out: magnitude of maximum facilitation of the postsynaptic potentials): ~150%
activity at 0.001 µM ([2]; Rattus norvegicus, nefiracetam 0.001 µM, Mean ± SD, n = 5 to 7, read-out: Postsynaptic potential (% of original amplitude)): 95 ± 6%
activity at 0.01 µM ([2]; Rattus norvegicus, nefiracetam 0.01 µM, Mean ± SD, n = 5 to 7, read-out: Postsynaptic potential (% of original amplitude)): 94 ± 5%
activity at 0.1 µM ([2]; Rattus norvegicus, nefiracetam 0.1 µM, Mean ± SD, n = 5 to 7, read-out: Postsynaptic potential (% of original amplitude)): 111 ± 9%
activity at 1 µM ([2]; Rattus norvegicus, nefiracetam 1 µM, Mean ± SD, n = 5 to 7, read-out: Postsynaptic potential (% of original amplitude)): 156 ± 6%
activity at 10 µM ([2]; Rattus norvegicus, read-out: Postsynaptic potential (% of original amplitude), nefiracetam 10 µM, Mean ± SD, n = 5 to 7): 144 ± 11%
concentrations giving short-term suppression of the postsynaptic potentials ([2]; biphasic effect, lower concentrations): ≤ 0.1 µM
current potentiation in mutant ACh receptors lacking PKC phosphorylation sites [3]: exhibited no current potentiation
